Measured values: patent US8399506B2, “Combinations of 4 bromo-2-(4-chlorophenyl)-5-(trifluoromethyl)-1H-pyrrole-3-carbonitrile and oxidizing agents” (Janssen Pharmaceutica, NV, priority 2006, dated 2013)
Like-named read-outs stand apart in the source and are kept apart here.

Legend:
[1] = system: Chlamydomonas sphagnophila CCAP 11/36E; assay: Experiment 1 poison plate assay, algae species (3); type: cell-based; conditions: 24-well plates, BG 11 medium, after 3 weeks of exposure, total active ingredient, ratio (I) to (II) in label
Procedure: (§1) Synergism between component (I) and one of the components (II) was determined by a commonly used and accepted method described by Kull F. C. et al. in Applied Microbiology, 9, 538-541 (1961) using the Synergy Index, which is calculated as follows for two compounds A and B:
(§2) [formula] wherein: • QA is the concentration of compound A in ppm, acting alone, which produced an end point (e.g. MIC), • Qa is the concentration of compound A in ppm, in the mixture, which produced an end point (e.g. MIC), • QB is the concentration of compound B in ppm, acting alone, which produced an end point (e.g. MIC), • Qb is the concentration of compound B in ppm, in the mixture, which produced an end point (e.g. MIC).
(§3) MIC is the minimum inhibitory concentration, i.e. the lowest concentration of each test compound or mixture of test compounds sufficient to inhibit visible growth.
(§4) When the Synergy Index is greater than 1.0, antagonism is indicated. When the SI is equal to 1.0, additivity is indicated.

[2] = system: Anabaena cylindrica CCAP 1403/2A; assay: Experiment 1 poison plate assay, algae species (2); type: cell-based; conditions: for MIC-values in ppm: 24-well plates, BG 11 medium, after 3 weeks of exposure, total active ingredient, ratio (I) to (II) in label
Procedure: as §1, §2, §3, §4

[3] = system: Artemia salina (EG Artemia Cysts, Great Salt Lake strain); assay: Experiment 1 poison plate assay, Artemia salina larvae; type: in vivo; conditions: Artemia salina larvae (24 hours old), artificial seawater; after 24 hours of exposure; total active ingredient; ratio (I) to (II) in label
Procedure: as §1, §2, §3, §4

Tribonema sp. CCAP 880/2 = assay: Experiment 2 poison plate assay, algae species (4); type: cell-based
Procedure: as §1, §2, §3, §4
(§5) Synergism between component (I) and one of the components (II) was determined using the Synergy Index as outlined above in Experiment 1.

[4] = system: Anabaena cylindrica CCAP 1403/2A; assay: Experiment 2 poison plate assay, algae species (2); type: cell-based; conditions: 24-well plates, BG 11 medium, after 3 weeks of exposure, total active ingredient, ratio (I) to (II) in label
Procedure: as §1, §2, §3, §4, §5

[5] = system: Chlorella vulgaris CCAP 211/12; assay: Experiment 2 poison plate assay, algae species (1); type: cell-based; conditions: 24-well plates, BG 11 medium, after 3 weeks of exposure, total active ingredient, ratio (I) to (II) in label
Procedure: as §1, §2, §3, §4, §5

[6] = buffer

[Na+].[O-]Cl [(II-b), sodium hypochlorite]
MIC-values in ppm [1]: 107.0 ppm
MIC-values in ppm [2]: 33.8 ppm
MIC-values in ppm [3]: 200.00 ppm

potassium (VI) ferrate [(II-h)]
MIC-values in ppm (Tribonema sp. CCAP 880/2; Tribonema sp., 24-well plates, BG 11 medium, after 3 weeks of exposure, total active ingredient, ratio (I) to (II) in label): 80.0 ppm

potassium superoxide [(II-e)]
MIC-values in ppm [4]: 45.0 ppm

OO [(II-a), hydrogen peroxide]
MIC-values in ppm [1]: 45.0 ppm
MIC-values in ppm [2]: 25.3 ppm

[O][Cl+][O-] [(II-c), chlorine dioxide]
MIC-values in ppm [5]: 9.49 ppm

N#Cc1c(-c2ccc(Cl)cc2)[nH]c(C(F)(F)F)c1Br [(I), 4-bromo-2-(4-chlorophenyl)-5-(trifluoromethyl)-1H-pyrrole-3-carbonitrile]
half-life [6]: a couple of days
half-life ([6]; pH 8.3): a few hours
MIC-values in ppm ([4]; listed as (I) + (II-e) 100 + 0): 19 ppm
MIC-values in ppm ([4]; listed as (I) + (II-f) 100 + 0): 25.3 ppm
MIC-values in ppm ([4]; listed as (I) + (II-g) 100 + 0): 6.00 ppm
MIC-values in ppm [1]: 107.0 ppm
MIC (Tribonema sp. CCAP 880/2; 504 h, read-out: MIC-values in ppm): 107 µg/mL
MIC ([2]; CCAP1403/2A, 504 h, read-out: MIC-values in ppm): 107 µg/mL
MIC-values in ppm [3]: 0.13 ppm
MIC-values in ppm [5]: 107.0 ppm

potassium nitrosodisulfonate [(II-g)]
MIC-values in ppm [4]: 80.0 ppm

[K+].[K+].[O-][O-] [(II-f), potassium peroxide]
MIC-values in ppm [4]: 10.7 ppm

O=S(=O)([O-])OOS(=O)(=O)[O-].[K+].[K+] [(II-d), potassium peroxydisulfate]
MIC-values in ppm [5]: 60.0 ppm
